Data on twelve compounds can be found in ChEMBL document CHEMBL5260815, “Profiling of in vitro activities of urea-based inhibitors against cysteine synthases from Mycobacterium tuberculosis” (Bioorg Med Chem Lett, 2017).

For test [1], the target named is T1, S-sulfocysteine synthase (Mycobacterium tuberculosis (strain ATCC 25618 / H37Rv), UniProt Q79FV4).
T1 sequence (Q79FV4 whole entry): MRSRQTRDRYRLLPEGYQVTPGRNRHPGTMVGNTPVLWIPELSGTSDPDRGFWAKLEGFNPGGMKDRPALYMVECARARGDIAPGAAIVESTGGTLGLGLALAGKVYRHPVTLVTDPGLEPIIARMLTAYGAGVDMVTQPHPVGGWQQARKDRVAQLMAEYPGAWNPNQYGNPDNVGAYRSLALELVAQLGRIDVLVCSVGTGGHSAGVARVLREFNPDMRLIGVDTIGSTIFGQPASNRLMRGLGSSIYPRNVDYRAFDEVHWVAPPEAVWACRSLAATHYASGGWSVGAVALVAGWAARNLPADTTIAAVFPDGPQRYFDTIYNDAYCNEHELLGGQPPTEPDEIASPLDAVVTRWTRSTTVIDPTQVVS
Briefly: Inhibition of hexahistidine-tagged recombinant Mycobacterium tuberculosis CysK2 expressed in Escherichia coli BL21(DE3) assessed as dissociation constant using PLP as substrate incubated for 5 mins by fluorescence analysis.

Test [2] deals with T1, S-sulfocysteine synthase. Briefly: Inhibition of hexahistidine-tagged recombinant Mycobacterium tuberculosis CysK2 expressed in Escherichia coli BL21(DE3) assessed as amount of S-sulfocysteine produced using […] as substrate incubated for 30 mins by acid-ninhydrin based spectrophotometric assay.
In test [3] the target is T2, O-acetylserine sulfhydrylase (Mycobacterium tuberculosis, UniProt P9WP55). Briefly: Inhibition of hexahistidine-tagged recombinant Mycobacterium tuberculosis CysK1 expressed in Escherichia coli BL21(DE3) assessed as amount of cysteine produced using O-acetyl-L-serine as substrate incubated for 12 mins by acid-ninhydrin based spectrophotometric assay.
Test [4] has as its target T2, O-acetylserine sulfhydrylase. Briefly: Inhibition of hexahistidine-tagged recombinant Mycobacterium tuberculosis CysK1 expressed in Escherichia coli BL21(DE3) assessed as dissociation constant using PLP as substrate incubated for 5 mins by fluorescence analysis.
Test [5] concerns the target O-phosphoserine sulfhydrylase (Mycobacterium tuberculosis (strain ATCC 25618 / H37Rv), UniProt P9WP53). Description: Inhibition of Mycobacterium tuberculosis CysM.
Test [6] concerns the target T1, S-sulfocysteine synthase. Briefly: Inhibition of hexahistidine-tagged recombinant Mycobacterium tuberculosis CysK2 expressed in Escherichia coli BL21(DE3) assessed as inhibition constant using […] as substrate by Lineweaver-Burk plot analysis.

SMILES strings stand for the structures.

Sequence of O-phosphoserine sulfhydrylase (P9WP53 whole entry): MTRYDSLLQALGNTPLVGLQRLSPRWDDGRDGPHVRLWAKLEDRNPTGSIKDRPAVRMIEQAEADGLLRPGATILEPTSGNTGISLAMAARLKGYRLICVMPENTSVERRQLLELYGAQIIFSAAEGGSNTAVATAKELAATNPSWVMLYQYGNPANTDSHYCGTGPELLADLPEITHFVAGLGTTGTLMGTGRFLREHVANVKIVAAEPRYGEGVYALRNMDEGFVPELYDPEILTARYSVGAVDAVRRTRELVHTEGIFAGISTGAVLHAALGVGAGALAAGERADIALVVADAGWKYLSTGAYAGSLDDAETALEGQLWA

As for `O=C(Nc1ccc(Cl)cc1)Nc1cccc(C(=O)O)c1`, the Kd in test [1] was determined as 16.9 µM. In test [2], the IC50 came to 13 µM.

With `Cc1ccc(NC(=O)Nc2cccc(C(=O)O)c2)cc1`, the Kd in test [1] amounted to 148 µM.

Consider `O=C(Nc1cccc(-c2ccccc2)c1)Nc1ccc(O)c(C(=O)O)c1`, for which the half-maximal inhibitory concentration (IC50) in test [3] was determined as 9.3 µM; in test [2], 10.3 µM. The Kd in test [1] stood at 102 µM.

Turning to `O=C(Nc1cccc(-c2nnn[nH]2)c1)Nc1ccc(Cl)c(Cl)c1`, in test [1], the Kd is 80.3 µM.

As for `O=C(Nc1cccc(C(=O)O)c1)Nc1ccc(Cl)c(Cl)c1`, the IC50 in test [3] came to 11.2 µM; in test [5], 0.48 µM; in test [2], 10.1 µM. Besides, the Kd in test [4] amounted to 241 µM; in test [1], 48.7 µM.

As to `O=C(Nc1cccc(-c2ccccc2)c1)Nc1ccc(C(=O)O)c(O)c1`, the IC50 is 21.2 µM in test [3] and 26.9 µM in test [2].

Take `O=C(Nc1ccc(Br)cc1)Nc1cccc(C(=O)O)c1`: the Kd in test [1] amounted to 17.7 µM. In addition, in test [2], the half-inhibitory concentration (IC50) worked out at 27.6 µM.

For the compound `O=C(Nc1ccc(Cl)c(Cl)c1)Nc1ccc(O)c(C(=O)O)c1`, the half-inhibitory concentration (IC50) in test [3] came to 2.5 µM; in test [2], 29.9 µM. The Kd in test [4] came out at 75.7 µM.

On to `O=C(Nc1cccc(C(=O)O)c1)Nc1cccc(-c2ccccc2)c1`, for which the IC50 in test [3] turned out to be 4.9 µM; in test [2] it was 6.6 µM. Moreover, the Kd in test [4] turned out to be 96.8 µM; in test [1], 14.9 µM. In test [6], the Ki stood at 1.1 µM.

As to `COc1ccc(OC)c(NC(=O)Nc2ccccc2C(=O)O)c1`, in test [4], the Kd was found to be 59.9 µM.

Turning to `O=C(Nc1ccc(Br)cc1)Nc1ccc(C(=O)O)c(O)c1`, in test [3], the IC50 worked out at 29.4 µM.

Regarding `O=C(O)c1cccc(NS(=O)(=O)c2cccc(-c3ccc(Cl)c(Cl)c3)c2)c1`, the Kd in test [4] is 110 µM.

The term Kd denotes a measure of binding affinity in units of concentration. For orientation: IC50 means the concentration that inhibits the measured activity by half. A word on the Ki: it is the equilibrium dissociation constant of an inhibitor or competing ligand from its target.
